# Experimental data as given in ChEMBL document CHEMBL1145159 (J Med Chem, 2005).
# “And” between values parts separate entries of the source, which are not always exact repeats. Equal entries are not always repeated. Square brackets hold non-standard residues; d marks the D form. Peptide text beside a SMILES is read from it. Hyp = O=C(O)[C@@H]1C[C@@H](O)CN1
# Assays:
# [1] = molecular target: T1, Neuronal acetylcholine receptor; alpha4/beta2 (Homo sapiens, UniProt P17787+P43681); experiment: Inhibitory concentration against Nicotinic acetylcholine receptor alpha4-beta2; assay type: protein-complex assay
# [2] = molecular target: T2, Neuronal acetylcholine receptor subunit alpha-7 (Homo sapiens, UniProt P36544); experiment: Inhibitory concentration against Nicotinic acetylcholine receptor alpha-7 expressed in xenopus oocytes; assay type: cell-based; details: xenopus oocyte
# [3] = molecular target: T1, Neuronal acetylcholine receptor; alpha4/beta2; experiment: Ki or IC50 concentration against Nicotinic acetylcholine receptor alpha4-beta2 expressed in xenopus oocytes; assay type: cell-based; details: Oocyte
# [4] = molecular target: T3, Neuronal acetylcholine receptor; alpha3/beta2 (Homo sapiens, UniProt P17787+P32297); experiment: Inhibitory concentration against Nicotinic acetylcholine receptor alpha3-beta2; assay type: protein-complex assay
# [5] = molecular target: T3, Neuronal acetylcholine receptor; alpha3/beta2; experiment: Inhibitory concentration against Nicotinic acetylcholine receptor alpha3-beta2 expressed in xenopus oocytes; assay type: cell-based, Oocyte
# [6] = molecular target: T4, Neuronal acetylcholine receptor; alpha3/beta4 (Homo sapiens, UniProt P30926+P32297); experiment: Inhibitory concentration against Nicotinic acetylcholine receptor alpha3-beta4; assay type: protein-complex assay
# [7] = molecular target: T2, Neuronal acetylcholine receptor subunit alpha-7; experiment: Inhibitory concentration against Nicotinic acetylcholine receptor alpha 7
# [8] = molecular target: T5, Neuronal acetylcholine receptor; alpha4/beta4 (Homo sapiens, UniProt P30926+P43681); experiment: Ki or IC50 concentration against Nicotinic acetylcholine receptor alpha4-beta4 expressed in xenopus oocytes; assay type: cell-based; details: Oocyte
# [9] = Inhibitory concentration against Nicotinic acetylcholine receptor alpha3-beta4 expressed in xenopus oocytes; assay type: cell-based; details: oocyte
# [10] = Inhibitory concentration against Nicotinic acetylcholine receptor alpha2-beta4 expressed in xenopus oocytes; assay type: cell-based; details: oocyte
# [11] = molecular target: T6, Neuronal acetylcholine receptor; alpha2/beta4 (Homo sapiens, UniProt P30926+Q15822); experiment: Inhibitory concentration against Nicotinic acetylcholine receptor alpha2-beta4; assay type: protein-complex assay
# [12] = molecular target: Neuronal acetylcholine receptor subunit alpha-3 (Homo sapiens) (UniProt P32297); experiment: Maximal response against [Ca2+] permeability and [Ca2+] modulation of alpha-3 nicotinic receptor
# [13] = molecular target: T4, Neuronal acetylcholine receptor; alpha3/beta4; experiment: Maximal response against Nicotinic acetylcholine receptor alpha3-beta4 expressed in HEK293 cells; assay type: cell-based
# [14] = Effective concentration against Nicotinic acetylcholine receptor alpha4-beta4 expressed in xenopus oocytes; assay type: cell-based; details: oocyte
# [15] = molecular target: T2, Neuronal acetylcholine receptor subunit alpha-7; experiment: (§1) Maximal response against Nicotinic acetylcholine receptor alpha 7
# [16] = Effective concentration against Nicotinic acetylcholine receptor alpha4-beta2 expressed in xenopus oocytes; assay type: cell-based; details: oocyte
# [17] = molecular target: T1, Neuronal acetylcholine receptor; alpha4/beta2; experiment: Maximal response against Nicotinic acetylcholine receptor alpha4-beta2 expressed in HEK293 cells; assay type: cell-based
# [18] = Effective concentration against Nicotinic acetylcholine receptor alpha3-beta4 expressed in xenopus oocytes; assay type: cell-based; details: oocyte
# [19] = Effective concentration against Nicotinic acetylcholine receptor alpha2-beta4 expressed in xenopus oocytes; assay type: cell-based; details: oocyte
# [20] = molecular target: T3, Neuronal acetylcholine receptor; alpha3/beta2; experiment: Maximal response against Nicotinic acetylcholine receptor alpha3-beta2 expressed in HEK293 cells; assay type: cell-based
# [21] = molecular target: T2, Neuronal acetylcholine receptor subunit alpha-7; experiment: Effective concentration against Nicotinic acetylcholine receptor alpha 7 expressed in xenopus oocytes; assay type: cell-based, Xenopus laevis, Oocyte
# [22] = molecular target: Neuronal acetylcholine receptor subunit alpha-7 (Rattus norvegicus) (UniProt Q05941); experiment: as §1
# [23] = molecular target: T3, Neuronal acetylcholine receptor; alpha3/beta2; experiment: Effective concentration against Nicotinic acetylcholine receptor alpha3-beta2 expressed in xenopus oocytes; assay type: cell-based, Oocyte
# [24] = molecular target: T6, Neuronal acetylcholine receptor; alpha2/beta4; experiment: Maximal response against Nicotinic acetylcholine receptor alpha2-beta4; assay type: protein-complex assay
# [25] = molecular target: T5, Neuronal acetylcholine receptor; alpha4/beta4; experiment: Maximal response against Nicotinic acetylcholine receptor alpha4-beta4; assay type: protein-complex assay
# [26] = molecular target: T1, Neuronal acetylcholine receptor; alpha4/beta2; experiment: Maximal response against Nicotinic acetylcholine receptor alpha4-beta2; assay type: protein-complex assay
# [27] = molecular target: T4, Neuronal acetylcholine receptor; alpha3/beta4; experiment: Maximal response against Nicotinic acetylcholine receptor alpha3-beta4 in [Ca2+] permeability and [Ca2+] modulation; assay type: protein-complex assay
# [28] = molecular target: T4, Neuronal acetylcholine receptor; alpha3/beta4; experiment: Maximal response against Nicotinic acetylcholine receptor alpha3-beta4; assay type: protein-complex assay
# [29] = molecular target: T3, Neuronal acetylcholine receptor; alpha3/beta2; experiment: Maximal response against Nicotinic acetylcholine receptor alpha3-beta2 in [Ca2+] permeability and [Ca2+] modulation; assay type: functional
# [30] = molecular target: T3, Neuronal acetylcholine receptor; alpha3/beta2; experiment: Maximal response against Nicotinic acetylcholine receptor alpha3-beta2; assay type: protein-complex assay
# [31] = molecular target: T4, Neuronal acetylcholine receptor; alpha3/beta4; experiment: Inhibitory concentration against Nicotinic acetylcholine receptor alpha3-beta4; Range is 3-5 nM; assay type: protein-complex assay
# [32] = molecular target: T3, Neuronal acetylcholine receptor; alpha3/beta2; experiment: Inhibitory concentration against Nicotinic acetylcholine receptor alpha3-beta2; Range is 3-5 nM; assay type: protein-complex assay
# [33] = molecular target: T5, Neuronal acetylcholine receptor; alpha4/beta4; experiment: Inhibitory concentration against Nicotinic acetylcholine receptor alpha4-beta4; Range is 3-5 nM; assay type: protein-complex assay
# [34] = molecular target: T1, Neuronal acetylcholine receptor; alpha4/beta2; experiment: Inhibitory concentration against Nicotinic acetylcholine receptor alpha4-beta2; Range is 3-5 nM; assay type: protein-complex assay
# [35] = molecular target: T2, Neuronal acetylcholine receptor subunit alpha-7; experiment: Inhibitory concentration against Nicotinic acetylcholine receptor alpha-7 Range is 3-5 nM
# [36] = molecular target: Neuronal acetylcholine receptor; alpha3/alpha6/beta2/beta3 (Homo sapiens, UniProt P17787+P32297+Q05901+Q15825); experiment: Inhibitory concentration against Nicotinic acetylcholine receptor alpha-6-alpha-3-beta-2-beta-3; Range is 0.7-1 nM; assay type: protein-complex assay
# [37] = molecular target: T4, Neuronal acetylcholine receptor; alpha3/beta4; experiment: Inhibitory concentration against Nicotinic acetylcholine receptor alpha3-beta4; Range is 0.7-1 nM; assay type: protein-complex assay
# [38] = molecular target: Neuronal acetylcholine receptor; alpha3/beta2 (Rattus norvegicus, UniProt P04757+P12390); experiment: Effective concentration against Nicotinic acetylcholine receptor alpha3-beta2 in rat mid brain slices
# [39] = molecular target: Neuronal acetylcholine receptor subunit alpha-7 (Rattus norvegicus, UniProt Q05941); experiment: Effective concentration against Nicotinic acetylcholine receptor alpha 7 in rat mid brain slices
# [40] = molecular target: T5, Neuronal acetylcholine receptor; alpha4/beta4; experiment: Effective concentration against Nicotinic acetylcholine receptor alpha4-beta4; assay type: protein-complex assay
# [41] = molecular target: Neuronal acetylcholine receptor; alpha2/beta4 (Rattus norvegicus) (UniProt P12389+P12392); experiment: Maximal response against Nicotinic acetylcholine receptor alpha2-beta4 in rat mid brain slices
# [42] = molecular target: Neuronal acetylcholine receptor; alpha3/beta4 (Rattus norvegicus) (UniProt P04757+P12392); experiment: Maximal response against Nicotinic acetylcholine receptor alpha3-beta4 in rat mid brain slices
# [43] = molecular target: T2, Neuronal acetylcholine receptor subunit alpha-7; experiment: Effective concentration against Nicotinic acetylcholine receptor alpha 7
# [44] = molecular target: Neuronal acetylcholine receptor; alpha4/beta4 (Rattus norvegicus) (UniProt P09483+P12392); experiment: Maximal response against Nicotinic acetylcholine receptor alpha4-beta4 in rat mid brain slices
# [45] = molecular target: Neuronal acetylcholine receptor; alpha4/beta2 (Rattus norvegicus) (UniProt P09483+P12390); experiment: Maximal response against Nicotinic acetylcholine receptor alpha4-beta2 in rat mid brain slices
# [46] = molecular target: T4, Neuronal acetylcholine receptor; alpha3/beta4; experiment: Effective concentration against Nicotinic acetylcholine receptor alpha3-beta4; assay type: protein-complex assay
# T4 sequence (P30926 whole entry): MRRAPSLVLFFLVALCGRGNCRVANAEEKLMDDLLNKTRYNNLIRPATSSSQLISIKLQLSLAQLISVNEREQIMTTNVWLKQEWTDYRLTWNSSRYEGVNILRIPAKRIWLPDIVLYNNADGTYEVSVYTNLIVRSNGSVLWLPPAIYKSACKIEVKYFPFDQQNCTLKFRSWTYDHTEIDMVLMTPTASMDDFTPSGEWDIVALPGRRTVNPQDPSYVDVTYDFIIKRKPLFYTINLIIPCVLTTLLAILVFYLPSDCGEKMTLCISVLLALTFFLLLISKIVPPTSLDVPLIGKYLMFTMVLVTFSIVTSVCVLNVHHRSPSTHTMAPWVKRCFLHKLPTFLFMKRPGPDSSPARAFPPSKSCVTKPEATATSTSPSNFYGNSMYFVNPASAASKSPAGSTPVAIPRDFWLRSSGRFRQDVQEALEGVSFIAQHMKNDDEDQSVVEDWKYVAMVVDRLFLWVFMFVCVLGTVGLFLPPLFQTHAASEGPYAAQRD
# T4 sequence (P32297 whole entry): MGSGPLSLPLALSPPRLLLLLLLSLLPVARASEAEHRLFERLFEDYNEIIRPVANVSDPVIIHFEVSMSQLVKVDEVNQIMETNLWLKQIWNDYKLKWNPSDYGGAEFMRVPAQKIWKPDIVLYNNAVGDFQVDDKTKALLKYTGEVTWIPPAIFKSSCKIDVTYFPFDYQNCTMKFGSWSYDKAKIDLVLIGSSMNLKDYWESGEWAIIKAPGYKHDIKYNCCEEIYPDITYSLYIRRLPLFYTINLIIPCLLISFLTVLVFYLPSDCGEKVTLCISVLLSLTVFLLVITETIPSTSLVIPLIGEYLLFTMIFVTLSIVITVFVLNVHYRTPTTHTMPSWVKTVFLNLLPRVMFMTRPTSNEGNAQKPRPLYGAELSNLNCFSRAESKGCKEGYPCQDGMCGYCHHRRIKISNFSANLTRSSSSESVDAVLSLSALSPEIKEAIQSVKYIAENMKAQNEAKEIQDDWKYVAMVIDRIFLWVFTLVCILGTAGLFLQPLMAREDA
# T2 sequence (P36544 whole entry): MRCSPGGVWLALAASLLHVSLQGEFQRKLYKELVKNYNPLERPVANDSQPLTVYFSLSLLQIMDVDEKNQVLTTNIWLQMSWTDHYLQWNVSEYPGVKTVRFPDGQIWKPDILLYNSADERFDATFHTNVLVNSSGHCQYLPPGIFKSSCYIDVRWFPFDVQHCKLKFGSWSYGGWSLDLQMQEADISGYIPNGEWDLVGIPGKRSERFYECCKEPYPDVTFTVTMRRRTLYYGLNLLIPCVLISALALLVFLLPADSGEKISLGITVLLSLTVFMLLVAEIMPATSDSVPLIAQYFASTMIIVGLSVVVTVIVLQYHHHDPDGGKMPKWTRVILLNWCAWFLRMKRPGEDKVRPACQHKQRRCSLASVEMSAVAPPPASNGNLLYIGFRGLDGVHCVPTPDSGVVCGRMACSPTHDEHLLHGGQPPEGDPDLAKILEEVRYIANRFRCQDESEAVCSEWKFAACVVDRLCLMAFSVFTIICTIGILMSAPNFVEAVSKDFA
# T3 sequence (P17787 whole entry): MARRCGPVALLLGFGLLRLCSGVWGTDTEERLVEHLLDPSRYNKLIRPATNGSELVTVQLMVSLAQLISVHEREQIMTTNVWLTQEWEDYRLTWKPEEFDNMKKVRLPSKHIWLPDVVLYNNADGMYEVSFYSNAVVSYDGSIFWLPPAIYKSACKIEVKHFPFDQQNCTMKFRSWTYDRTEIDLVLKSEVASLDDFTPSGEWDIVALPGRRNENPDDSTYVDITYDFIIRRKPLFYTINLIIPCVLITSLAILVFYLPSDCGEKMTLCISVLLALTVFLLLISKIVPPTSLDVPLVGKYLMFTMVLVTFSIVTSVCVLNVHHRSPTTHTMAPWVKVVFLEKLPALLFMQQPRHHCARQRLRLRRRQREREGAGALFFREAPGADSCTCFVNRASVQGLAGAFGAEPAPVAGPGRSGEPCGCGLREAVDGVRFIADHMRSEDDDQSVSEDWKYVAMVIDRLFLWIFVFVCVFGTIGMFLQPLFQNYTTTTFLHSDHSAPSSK
# T3 sequence (P32297 whole entry): as the sequence (P32297 whole entry) above
# T5 sequence (P30926 whole entry): as the sequence (P30926 whole entry) above
# T5 sequence (P43681 whole entry): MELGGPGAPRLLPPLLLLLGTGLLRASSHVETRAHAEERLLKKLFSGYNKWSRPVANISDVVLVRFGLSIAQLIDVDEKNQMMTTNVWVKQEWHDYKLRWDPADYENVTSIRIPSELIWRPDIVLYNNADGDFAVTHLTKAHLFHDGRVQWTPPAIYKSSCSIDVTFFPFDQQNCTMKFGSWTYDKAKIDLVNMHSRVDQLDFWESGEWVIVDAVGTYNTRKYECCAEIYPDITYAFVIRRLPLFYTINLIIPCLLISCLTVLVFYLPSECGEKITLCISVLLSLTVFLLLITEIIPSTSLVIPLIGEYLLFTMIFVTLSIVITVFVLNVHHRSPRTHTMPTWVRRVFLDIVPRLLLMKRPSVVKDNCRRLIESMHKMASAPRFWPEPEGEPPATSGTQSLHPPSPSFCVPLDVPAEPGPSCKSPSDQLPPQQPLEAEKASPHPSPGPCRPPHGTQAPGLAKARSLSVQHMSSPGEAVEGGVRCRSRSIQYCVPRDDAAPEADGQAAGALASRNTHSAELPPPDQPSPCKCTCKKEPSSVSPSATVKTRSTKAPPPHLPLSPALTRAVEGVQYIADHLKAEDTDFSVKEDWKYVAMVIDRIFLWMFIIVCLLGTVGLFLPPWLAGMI
# T6 sequence (P30926 whole entry): as the sequence (P30926 whole entry) above
# T6 sequence (Q15822 whole entry): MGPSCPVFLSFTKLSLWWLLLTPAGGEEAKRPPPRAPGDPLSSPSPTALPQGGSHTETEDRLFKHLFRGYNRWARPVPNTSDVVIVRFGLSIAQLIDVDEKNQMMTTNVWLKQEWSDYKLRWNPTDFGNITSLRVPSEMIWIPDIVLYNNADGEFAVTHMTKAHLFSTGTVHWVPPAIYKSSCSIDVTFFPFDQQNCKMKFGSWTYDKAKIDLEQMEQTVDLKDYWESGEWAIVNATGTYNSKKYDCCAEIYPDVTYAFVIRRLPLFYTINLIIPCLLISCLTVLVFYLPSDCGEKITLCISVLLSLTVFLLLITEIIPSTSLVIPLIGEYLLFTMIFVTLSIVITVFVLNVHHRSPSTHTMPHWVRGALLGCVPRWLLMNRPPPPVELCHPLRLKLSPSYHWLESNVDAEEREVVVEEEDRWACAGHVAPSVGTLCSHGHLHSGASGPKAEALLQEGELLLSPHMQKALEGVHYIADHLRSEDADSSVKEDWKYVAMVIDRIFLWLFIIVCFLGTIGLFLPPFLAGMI
compound,measurement,setting,value
COc1cc2c3cc1Oc1cccc(c1O)C[C@@H]1c4c(cc(OC)c(O)c4Oc4ccc(cc4)CC3N(C)CC2)CC[N+]1(C)C (stereo partly specified),Concentration,[1],7.6 µM
same,Concentration,[2],3.1 µM
same,Concentration,[3],3.2 µM
same,IC50,[4],0.23 µM
same,IC50,[5],2.4 µM
same,IC50,[6],4.1 µM and 0.73 µM
same,IC50,[7],14.7 µM
same,Concentration,[8],0.21 µM
same,IC50,[9],2.2 µM
same,IC50,[10],4.2 µM
same,IC50,[11],2.3 µM and 4 µM
CC(=O)OCC[N+](C)(C)C [ACETYLCHOLINE],Rmax,[12],100%
same,Rmax,[13],100%
same,EC50,[14],20 µM
same,Rmax,[15],97%
same,EC50,[16],68 µM
same,Rmax,[17],172%
same,EC50,[18],203 µM
same,EC50,[19],83 µM
same,Rmax,[20],150%
C[N+]1(C)CCN(c2ccccc2)CC1 [DIMETHYLPHENYLPIPERAZINIUM],EC50,[21],31 µM
same,EC50,[14],46 µM
same,Rmax,[22],54%
same,EC50,[16],18 µM
same,EC50,[23],56 µM
same,Rmax,[24],58%
same,Rmax,[25],19%
same,Rmax,[26],90%
same,Rmax,[27],107%
same,Rmax,[28],101%
same,Rmax,[29],100%
same,EC50,[18],19 µM
same,EC50,[19],23 µM
same,Rmax,[30],124%
CC[C@H](C)[C@H](N)C(=O)N[C@@H](CCCN=C(N)N)C(=O)N[C@@H](CC(=O)O)C(=O)N[C@@H](CCC(=O)O)C(=O)N[C@@H](CS)C(=O)N[C@@H](CS)C(=O)N[C@@H](CO)C(=O)N[C@@H](CC(N)=O)C(=O)N1CCC[C@H]1C(=O)N[C@@H](C)C(=O)N[C@@H](CS)C(=O)N[C@@H](CCCN=C(N)N)C(=O)N[C@H](C(=O)N[C@@H](CC(N)=O)C(=O)N[C@@H](CC(N)=O)C(=O)N1C[C@H](O)C[C@H]1C(=O)N[C@@H](Cc1c[nH]cn1)C(=O)N[C@H](C(=O)N[C@@H](CS)C(N)=O)C(C)C)C(C)C (H-IRDECCSNPACRVNN[Hyp]HVC-NH2),IC50,[31],0.005 µM
same,IC50,[32],0.005 µM
same,IC50,[33],0.005 µM
same,IC50,[34],0.005 µM
same,IC50,[35],0.005 µM
CC[C@H](C)[C@H](NC(=O)[C@H](CCC(N)=O)NC(=O)[C@@H]1CCCN1C(=O)[C@H](CC(N)=O)NC(=O)[C@H](Cc1cnc[nH]1)NC(=O)[C@@H](NC(=O)[C@@H](NC(=O)[C@H](CS)NC(=O)[C@@H](NC(=O)[C@@H]1CCCN1C(=O)[C@H](CC(N)=O)NC(=O)[C@H](CO)NC(=O)[C@H](CS)NC(=O)[C@H](CS)NC(=O)[C@@H]1CCCN1C(=O)[C@@H](N)CC(=O)O)C(C)C)[C@@H](C)O)C(C)C)C(=O)N[C@@H](CS)C(N)=O (H-DPCCSNPVCTVHNPQIC-NH2),IC50,[36],0.001 µM
same,IC50,[37],0.001 µM
CN[C@@H](C)C/C=C/c1cncc(OC(C)C)c1 [ISPRONICLINE],EC50,[38],> 100 µM
same,EC50,[39],> 100 µM
same,EC50,[40],> 10 µM
same,Rmax,[41],56%
same,Rmax,[42],24%
same,EC50,[43],> 10 µM
same,Rmax,[44],42%
same,Rmax,[45],33%
same,Rmax,[26],60%
same,EC50,[46],> 10 µM
